Measurements as given in patent publication US11530196B2, “Pyrimidine compound acting on EGFR and ERBB2” (CHINA RESOURCES PHARMACEUTICAL HOLDINGS COMPANY LIMITED, priority 2019, dated 2022).
Read-outs that look alike come from different tables or passages of the source.

Experiments:
[1] = tested on: A431 (EGFR wild type) cells; assay: Anti-proliferation activity test against A431 cells; type: cell-based; details: Homo sapiens, A-431; A431, Cell-Titer Glo, 72 hours
Experimental: (2) Anti-Proliferation Activity Test of the Compound Against H1975 Cells and IC50 Test of Anti-Proliferation Activity Against A431 Cells
RPMI1640 medium, FBS fetal bovine serum, trypsin-EDTA, were all purchased from Giboco. DPBS was purchased from Corning, penicillin/streptomycin solution was purchased from Hyclone, and Cell-Titer Glo reagent was purchased from Promega (1kit, Cat. No. G7571). Plate reading instrument: Envision (PerkinElmer).
384-well plates in columns 1, 2, and 24 were added with 45 μL of medium, and the cell suspension was dispensed with Multi-drop at 45 μL per well (1000 cells) and incubated overnight in an incubator. The compound was added to the source plate according to the Echo dispensing requirements, the compound in the source plate was added to the inter plate and diluted to an intermediate concentration, then the compound in the source plate and the inter plate was added to the cell plate, and the cells were continued to be incubated in a incubator for 72 hours. After 72 hours, Cell-Titer Glo reagent and cells were removed and equilibrated at room temperature for 30 min. 25 μL of Cell-Titer Glo reagent was dispensed into 384-well plates with Multi-drop, the cell plate was vibrated at medium speed for 3 min, centrifuged at 1000 rpm for 2 min, and stood for 10 min. The plate was read by Envision (Luminescence). […]

[2] = Pharmacokinetic study, single intravenous and oral administration in Beagle dogs; type: in vivo; details: dog, plasma; for AUC(0-t): read-out: Exposure of AUC0-last
Experimental: The purpose of this experiment was to investigate the pharmacokinetics (PK) of the compounds in different species after single intravenous and single oral administration of the test compounds.
After intravenous or oral administration, blood samples were collected from the animals, and the actual time of blood collection was recorded. After the blood samples were collected, the samples were immediately transferred to the labelled centrifuge tube containing K2-EDTA, and then centrifuged to obtain plasma. Plasma was transferred to pre-cooled centrifuge tubes, quick-frozen in dry ice and stored in an ultra-low temperature refrigerator at −70±10° C. until LC-MS/MS analysis was performed.
The plasma drug concentration data of the compounds were processed using pharmacokinetic software with a non-compartmental model. The peak concentration (Cmax) and time to peak (Tmax), as well as the quantifiable end time were obtained directly from the plasma concentration-time curve. The following pharmacokinetic parameters were calculated using the log-linear trapezoidal method: half-life (T1/2), apparent volume of distribution (Vdss), and clearance (Cl), area under the time-plasma concentration curve from point 0 to the end time point (AUC0-last), and initial concentration (C0).

[3] = tested on: LU0387 EGFR-H773_V774insNPH cells; assay: Anti-proliferation activity test of LU-0387 cells; type: cell-based; details: Homo sapiens, 96 h, CTG, 4 days, read-out: Cell IC50 (anti-proliferation)
Experimental: (1) Anti-Proliferation Activity Test of LU-0387 (EGFR Exon 20 NPH Insertion Mutation) Cells
Fetal bovine serum FBS, CellTiter Glo® luminescent cell activity assay, 96-well clear flat-bottomed black-walled plate
A cell counter was used for cell counting, and cell viability was detected to ensure that the viability of each cell line was above 90%. Cell suspension was added to a 96-well plate to bring the cell density to the specified concentration and incubated overnight at 37° C., 5% CO2 and 95% humidity. The culture medium was added to the T0 plate, the CTG reagent was melted and the cell plate was equilibrated at room temperature. CTG solution was added to each well. The cell plate was vibrated to lyse the cells and the cold light values were read. The compound to be test and the control drug were diluted in a gradient to obtain a 10-fold solution. 10 μL of drug solution was added to each well of a 96-well plate that had been inoculated with cells. The incubation was continued at 37° C., 5% CO2, 95% humidity for 4 days, and CTG analysis was performed and cold light values were read separately. The data were analyzed using GraphPad Prism 5.0 software and IC50 values were calculated.
The IC50 data of the compounds of the present disclosure against EGFR exon 20 insertion mutation NPH in LU-0387 cells are shown in Table 4.

[4] = biological target: Ba/F3 EGFR-V769_D770insASV (Homo sapiens, UniProt P00533, DUP767-769, cells depend on it); assay: Anti-proliferation against Ba/F3 exon 20 insertion mutant cells (ASV); type: cell-based, mouse; details: CTG, 72 hours, read-out: Mutant cells IC50 (anti-proliferation)
Chain of Ba/F3 EGFR-V769_D770insASV (P00533 with tags, fused parts or gaps DUP767-769): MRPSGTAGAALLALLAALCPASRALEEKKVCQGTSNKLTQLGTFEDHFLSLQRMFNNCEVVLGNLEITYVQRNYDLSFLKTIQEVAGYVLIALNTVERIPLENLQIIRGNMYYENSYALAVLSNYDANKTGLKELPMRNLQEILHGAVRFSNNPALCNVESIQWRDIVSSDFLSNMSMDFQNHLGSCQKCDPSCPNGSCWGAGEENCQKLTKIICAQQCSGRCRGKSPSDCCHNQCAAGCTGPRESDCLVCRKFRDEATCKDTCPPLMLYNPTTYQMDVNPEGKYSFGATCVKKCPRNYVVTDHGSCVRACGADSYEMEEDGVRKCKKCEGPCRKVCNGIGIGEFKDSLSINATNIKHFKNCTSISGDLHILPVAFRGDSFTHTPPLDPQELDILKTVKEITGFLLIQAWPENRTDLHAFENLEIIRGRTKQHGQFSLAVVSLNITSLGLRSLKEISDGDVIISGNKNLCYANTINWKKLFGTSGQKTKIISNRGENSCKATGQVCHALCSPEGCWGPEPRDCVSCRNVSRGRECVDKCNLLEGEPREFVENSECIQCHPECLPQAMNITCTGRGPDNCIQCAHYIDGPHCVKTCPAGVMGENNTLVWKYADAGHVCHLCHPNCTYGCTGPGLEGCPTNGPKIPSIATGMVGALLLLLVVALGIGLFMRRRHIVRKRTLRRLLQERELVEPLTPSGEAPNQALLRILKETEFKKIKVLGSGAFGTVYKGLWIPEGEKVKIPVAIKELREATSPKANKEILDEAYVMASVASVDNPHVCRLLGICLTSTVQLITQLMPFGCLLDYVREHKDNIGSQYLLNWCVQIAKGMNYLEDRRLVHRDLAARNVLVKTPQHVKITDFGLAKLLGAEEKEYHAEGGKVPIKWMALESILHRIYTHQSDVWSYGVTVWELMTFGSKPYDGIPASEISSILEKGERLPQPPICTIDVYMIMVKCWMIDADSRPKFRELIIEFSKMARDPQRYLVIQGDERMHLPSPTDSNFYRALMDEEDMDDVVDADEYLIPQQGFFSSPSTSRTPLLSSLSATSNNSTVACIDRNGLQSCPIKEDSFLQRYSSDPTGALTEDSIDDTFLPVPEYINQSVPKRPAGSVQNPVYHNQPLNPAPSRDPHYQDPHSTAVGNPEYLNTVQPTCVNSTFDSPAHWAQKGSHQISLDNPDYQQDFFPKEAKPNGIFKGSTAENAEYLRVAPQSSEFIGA
Text: (§1) RPMI1640 medium was purchased from Hyclone, FBS fetal bovine serum was purchased from GBICO, and trypsin-EDTA were both purchased from Giboco. DPBS was purchased from Corning, penicillin/streptomycin solution was purchased from Hyclone, and Cell-Titer Glo reagent was purchased from Promega (Cat. No. G7572). Ba/F3 EGFR-D770_N771insSVD, Ba/F3 EGFR-H773_V774insNPH, Ba/F3 EGFR-V769_D770insASV, BaF3 ERBB2 A775_G776 ins YVMA, the cell lines were constructed by Beijing Kang Yuan Bochuang Biotechnology Co., Ltd. Plate reading instrument: Envision (PerkinElmer).
(§2) Cells in logarithmic growth phase were harvested and cell counts were performed using a […]. Cell viability was detected by the Taipan Blue rejection assay. The cell concentration was adjusted; the cell suspension was added to a 96-well plate separately. Cells in 96-well plates were incubated overnight at 37° C., 5% CO2, and 95% humidity. […] The cell plate was placed at room temperature to stabilize the cold light signal, and the cold light values were read. The data were analyzed using GraphPad Prism 7.0 software, and a nonlinear S-curve regression was used to fit the data to derive the dose-effect curve from which the IC50 values were calculated. […]

[5] = biological target: Ba/F3 EGFR-H773_V774insNPH (Homo sapiens, UniProt P00533, DUP771-773, cells depend on it); assay: Anti-proliferation against Ba/F3 exon 20 insertion mutant cells (NPH); type: cell-based, mouse; details: CTG, 72 hours, read-out: Mutant cells IC50 (anti-proliferation)
Chain of Ba/F3 EGFR-H773_V774insNPH (P00533 with tags, fused parts or gaps DUP771-773): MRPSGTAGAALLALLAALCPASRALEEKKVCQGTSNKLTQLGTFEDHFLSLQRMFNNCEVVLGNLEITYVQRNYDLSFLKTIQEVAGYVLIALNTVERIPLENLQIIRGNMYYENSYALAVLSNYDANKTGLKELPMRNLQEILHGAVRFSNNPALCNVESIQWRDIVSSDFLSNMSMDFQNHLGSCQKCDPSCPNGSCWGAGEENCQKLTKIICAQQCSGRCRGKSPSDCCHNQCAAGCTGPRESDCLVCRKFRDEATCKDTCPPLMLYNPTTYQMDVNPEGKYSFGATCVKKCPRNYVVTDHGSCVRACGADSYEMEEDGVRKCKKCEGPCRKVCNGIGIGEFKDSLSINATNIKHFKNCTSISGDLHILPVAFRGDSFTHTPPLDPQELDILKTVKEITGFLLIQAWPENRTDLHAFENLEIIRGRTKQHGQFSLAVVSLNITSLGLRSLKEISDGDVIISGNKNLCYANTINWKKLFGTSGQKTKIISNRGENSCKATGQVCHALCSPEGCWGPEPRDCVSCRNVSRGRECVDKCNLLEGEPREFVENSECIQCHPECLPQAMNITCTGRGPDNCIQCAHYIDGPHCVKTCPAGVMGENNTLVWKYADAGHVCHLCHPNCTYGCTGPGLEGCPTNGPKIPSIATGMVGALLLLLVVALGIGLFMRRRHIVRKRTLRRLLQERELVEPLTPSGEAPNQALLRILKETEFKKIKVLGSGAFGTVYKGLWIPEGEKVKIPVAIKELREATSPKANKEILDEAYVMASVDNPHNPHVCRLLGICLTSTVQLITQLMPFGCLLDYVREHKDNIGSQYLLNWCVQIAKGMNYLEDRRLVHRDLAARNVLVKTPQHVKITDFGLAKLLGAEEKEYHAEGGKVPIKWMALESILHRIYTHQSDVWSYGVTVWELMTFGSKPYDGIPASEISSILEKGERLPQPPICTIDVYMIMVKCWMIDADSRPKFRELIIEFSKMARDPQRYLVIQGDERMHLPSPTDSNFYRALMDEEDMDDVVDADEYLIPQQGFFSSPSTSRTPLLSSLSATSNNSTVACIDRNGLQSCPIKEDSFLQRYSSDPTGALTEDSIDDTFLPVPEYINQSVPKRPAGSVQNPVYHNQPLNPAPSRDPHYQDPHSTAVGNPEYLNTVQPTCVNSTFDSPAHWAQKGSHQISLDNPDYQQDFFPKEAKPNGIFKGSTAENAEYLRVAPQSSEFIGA
Text: as §1, §2

Structure (SMILES): C=CC(=O)Nc1cc(Nc2ncc(C(=O)OC(C)C)c(-c3cn(OC)c4ccccc34)n2)c(OC)cc1N(C)CCN(C)C.CS(=O)(=O)O [Compound 1]
- IC50 [1]: 335 nM
- clearance ([2]; intravenous injection 2 mg/kg): 12.7 mL/min/kg
- half-life ([2]; intravenous injection 2 mg/kg): 8.79 h
- AUC ([2]; intravenous injection 2 mg/kg, read-out: Exposure of AUC): 3.85 µM·h
- Vd ([2]; intravenous injection 2 mg/kg, read-out: Vdss): 7.98 L/kg
- bioavailability ([2]; oral 10 mg/kg): 53.5%
- AUC(0-t) ([2]; oral 10 mg/kg): 10.3 µM·h
- bioavailability ([2]; oral 50 mg/kg): 36.6%
- AUC(0-t) ([2]; oral 50 mg/kg): 35.3 µM·h
- IC50 [3]: 25.6 nM
- GI50 [4]: 7 nM
- GI50 [5]: 15 nM
